Data from US7795203B2, “Method for topical treatment of eye disease and composition and device for said treatment” (priority 2002, dated 2010).
Where a SMILES comes first, the peptide text is derived from it.

Legend:
[1] = Pharmacokinetic studies: N-acetylcarnosine in blood plasma after topical administration to the eye; format: in vivo
Description: (§1) Yet another advantage of the present invention is that systemic absorption of N-acetylcarnosine and/or carnosine is increased through the microvessels of the conjunctival and lid mucosal tissues because the cellulose compound increases the time of persistence of N-acetylcarnosine in the conjunctival sac. More particularly, N-acetylcarnosine appears in blood plasma within 30 min of its topical administration to the eye with carboxymethylcellulose. The half time of decay of N-acetylcarnosine in plasma is about 150 min or more according to pharmacokinetic studies. […] Accordingly, once in blood plasma N-acetylcarnosine can act as a competititve saturating inhibitor of carnosinase, which is very helpful to protect L-carnosine from hydrolysis during concomitant oral administration of L-carnosine as an anti-aging therapy.

[2] = biological target: T1, carnosinase (Homo sapiens, UniProt Q96KN2); assay: Hydrolysis with carnosinase; format: biochemical; conditions: substrate of carnosinase similar to L-carnosine
T1 sequence (Q96KN2 27-507 limits assumed): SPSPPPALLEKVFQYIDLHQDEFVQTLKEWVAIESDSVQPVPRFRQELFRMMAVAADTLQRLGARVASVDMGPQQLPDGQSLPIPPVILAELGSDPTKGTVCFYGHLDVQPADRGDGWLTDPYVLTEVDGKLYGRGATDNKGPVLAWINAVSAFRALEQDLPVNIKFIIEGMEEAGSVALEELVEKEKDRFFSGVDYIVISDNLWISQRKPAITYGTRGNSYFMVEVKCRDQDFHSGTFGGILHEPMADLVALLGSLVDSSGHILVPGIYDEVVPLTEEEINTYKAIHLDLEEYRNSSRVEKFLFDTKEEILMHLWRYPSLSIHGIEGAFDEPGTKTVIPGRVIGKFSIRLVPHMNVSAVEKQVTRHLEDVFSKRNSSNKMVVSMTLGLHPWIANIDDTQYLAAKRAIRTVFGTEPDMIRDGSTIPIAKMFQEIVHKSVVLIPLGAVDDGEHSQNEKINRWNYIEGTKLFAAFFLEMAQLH
Description: as §1

[3] = Clinical study of 0.1% N-Acetyl-RGDS in patients with POAG and OH (IOP, tonography); format: in vivo, human; conditions: 0.1% topically twice daily
Source text: Without intending to be bound by theory, the inventor currently believes that RGD-containing peptides, and/or their pharmacologically acceptable salts, are efficacious for the therapeutical and surgical treatment of primary open-angle glaucoma (POAG) and ocular hypertension (OH). […] The effect of 0.1% N-Acetyl-RGDS on outflow facility, as studied by tonography, was striking providing a significant increase to 26-33%. The cleansing activity of Acetyl-RGDS is accompanied by increase in trabecular outflow facility which is different from that of other drugs (pilocarpine) previously shown in patients with POAG and OH. The clinical significance and mechanism of IOP reduction by N-Acetyl-RGDS are related with the cleansing effect of N-Acetyl-RGDS on extracellular matrix proteins and plaque material in trabecular meshwork to reduce the outflow resistance in the eyes of patients with POAG and OH. It is believed N-Acetyl-RGDS is also suitable to treat secondary cataracts and vitreoproliferative disorders.

Row | SMILES | half time of decay in plasma ([1]; according to pharmacokinetic studies) | time to appearance in blood plasma ([1]; topical administration to the eye with carboxymethylcellulose) | resistance to hydrolysis with carnosinase [2] | tolerability [3]
1 | CC(=O)NCCC(=O)N[C@@H](Cc1c[nH]cn1)C(=O)O [N-acetylcarnosine] | ≥ 150 min | ≤ 30 min | highly resistant to hydrolysis with carnosinase | –
2 | CC(=O)N[C@@H](CCCNC(=N)N)C(=O)NCC(=O)N[C@@H](CC(=O)O)C(=O)N[C@@H](CO)C(=O)O [N-Acetyl-RGDS, N-acetyl-Arg-Gly-Asp-Ser peptide] (Ac-RGDS-OH) | – | – | – | well tolerated
